Reference: patent US20240352415A1, “METHODS FOR THE GENERATION OF HUMAN RETINAL GANGLION CELLS AND COMPOSITIONS, ASSAYS, DEVICES, AND KITS COMPRISING SAME” (priority 2021, published 2024)
“Also recorded” adds a separate entry of the source.

How the values were obtained:
[1] = test system: CONCEPT telencephalon-eye organoids; assay: Inhibition of FGF signaling in CONCEPT telencephalon-eye organoids with FGFR and MEK inhibitors (immunostaining readout); type: cell-based, human; settings: inhibitor in culture medium starting on day 15, harvested day 24; PD 161570 1 μM, PD 0325901 2 μM; DMSO control
Procedure: CONCEPT telencephalon-eye organoids were generated as follows. A humidified incubator at 37° C. with 5% C02 was used for cell culture. H1 hESCs or iPSCs that were passaged using ReLeSR two or three days before experiments were detached using Dispase (GIBCO 17105041) and then harvested by centrifugation. After that, the cell pellets were suspended in ice-cold Matrigel. After gelling at 37° C. for 15-20 minutes, the hESC/Matrigel clump was gently dispersed in a N2B27 Medium (DMEM/F12+GlutaMAX (GIBCO):Neurobasal medium (GIBCO)=1:1, 0.5×B27 supplement (GIBCO), 0.5×N2 supplement (GIBCO), 0.1 mM β-mercaptoethanol, and 0.2 mM L-GlutaMax) for floating culture. With the starting day of cell differentiation designated as day 0, cysts with a single lumen formed on day 1. On days 3-5, individual cysts were manually picked using a curved Pasteur pipets under an inverted microscope and then seeded onto Matrigel-coated 24-well plates at a density of 2-6 cysts per well. Cysts spontaneously attached to the culture surface and grew. […] Culture mediums were changed every two or three days. To inactivate FGF signaling in CONCEPT organoids, FGFR1/2/3 inhibitor PD 161570 (1 μM; Tocris) and MEK1/2 inhibitor PD 0325901 (2 μM; Tocris) were supplemented to the culture medium staring on day 15. DMSO was used as a control. Treated CONCEPT organoids were harvested on day 24. CONCEPT telencephalon-eye organoids were fixed in 4% PFA for 15-30 minutes at room temperature and processed for immunostaining. These primary antibodies were used: […] Primary antibodies were visualized using Alexa Fluor 488-, 568-, and 647-conjugated secondary antibodies and imaged using a Zeiss AxioObserver Z1 microscope. […] In dual-color immunohistochemistry for PAX2 and FGF8, FGF8 was visualized using AP-conjugated anti mouse secondary antibody (Invitrogen A16038), and PAX2 was detected by biotin-conjugated anti rabbit secondary antibody (Invitrogen B2770) followed by […]-conjugated streptavidin (ThermoScientific 21130).

[2] = test system: voltage-gated potassium channels
[3] = test system: voltage-gated sodium channels; type: cell-based, human

Row | Structure (SMILES) | RGC somas and directional axon growth marked by CNTN2 expression [1] | optic disc cells marked by moderate-level PAX2 expression at the outer regions [1] | optic stalk cells marked by high-level PAX2 expression at the inner zone [1] | retinal (neuroretinal) progenitors marked by VSX2 expression [1] | effect on amplitude of outward currents [2] | mean IK±SD at 60 mV (outward potassium current amplitude) [2] [pA] | effect on inward currents [3] | mean INa+SD at −10 mV (inward sodium current amplitude) [3] [pA]
1 | CCN(CC)CCCCNc1ncc2cc(-c3c(Cl)cccc3Cl)c(NC(=O)NC(C)(C)C)nc2n1 [PD 161570] | drastically reduced or nearly absent | severely reduced | reduced | reduced | – | – | – | –
2 | O=C(NOC[C@H](O)CO)c1ccc(F)c(F)c1Nc1ccc(I)cc1F [PD 0325901] | substantially reduced or nearly absent; also recorded: drastically reduced | nearly absent | largely remained | largely remained | – | – | – | –
3 | CC[N+](CC)(CC)CC.[Cl-] [TEA, Tetraethylammonium-chloride] | – | – | – | – | significantly reduced | 279±201 | – | –
4 | NC1=N[C@H](O)[C@H]2[C@H]3O[C@]4(O)O[C@@H]([C@@H](O)[C@@]2(N1)[C@@H]4O)[C@]3(O)CO [TTX, Tetrodotoxin-citrate] | – | – | – | – | – | – | abolished all inward currents | −18.3±13
